Legend:
PSME4 = experiment: Western blot of A549 cells treated with mizoribine; type: cell-based; settings: purine synthesis blocked using mizoribine, FIG. 26B
Description: FIG. 26A-B. PSME4 expression correlates with increased Pyrimidine and decreased Purine metabolites. (A) The log 2 fold change in abundance of cellar metabolites in PSME4 high or low expressing cell lines (x axis) is plotted against the significance of the change. […] (B) A549 cells were treated with mizoribine for the time indicated and then separated by SDS-PAGE and analyzed by Western blot probed with the following antibodies: PSME4, LMP7 (PSMB8), PSMB10, pana (recognized all PSMA subunits), and β actin. Cell Culture and Treatments: A549 cells were grown in DMEM supplemented with 10% fetal bovine serum, 1% Penicillin/streptomycin and L-glutamine (2 mM) (Biological industries) at 37° C. with 5% CO2. Cells were treated with 400 U*mL−1 TNFαand/or 200 U*mL-1 IFNγ (peprotech) for the indicated amount of time. Antibodies for Western blotting, immunoprecipitation and immunohistochemistry: Primary antibodies to the following were used: PSMA1 (hybridoma). PANα (PSMA1-7; Enzo, BML-PW8195-0025), PSME4 (Millipore Sigma HPA060922 and Proteintech 18799-1-AP), LMP7 (Cell signaling 13635), PSMB10 (Thermo Fisher PAS19146) and β-Actin (Abcam ab170325) The following secondary antibodies were used: goat anti-mouse HRP (115-035-003) and goat anti-rabbit HRP (111-035-003) (Jackson Labs).

proteasome = experiment: Proteasome Cleavage Reporter Assay in A549 active cell extract; type: biochemical
Description: FIGS. 33A-D Active cell extract was prepared from A549 lung cancer cells, cells treated with TNFα and IFNγ (TI) and cells treated with TI and recombinant PA200. As a control, MG132 proteasome inhibitor was added. The extracts were then incubated with LLVY-AMC (SEQ ID NO: 1) (A) or PAL-AMC (SEQ ID NO: 2) (B) for 3.5 hours and the relative fluorescence units (RFU) was measured every minute. The RFU for each condition using LLVY-AMC (SEQ ID NO: 1) (C) or PAL-AMC (SEQ ID NO: 2) (D) is shown at 1.5 and 3.5 hours across the different repeats of the experiment.
FIGS. 34A-D. Active cell extract was prepared from A549 lung cancer cells and cells treated with TNFα and IFNγ (TI). To each of these PA200 was added at a concentration of 4.7 nm (1:1) or 0.47 nm (1:10). As a control, MG132 proteasome inhibitor was added. The extracts were then incubated with LLE-AMC (SEQ ID NO: 3) (A), NPND-AMC (SEQ ID NO: 4) (B), LLVY-AMC (SEQ ID NO: 1) (C) or LLE-BNA (SEQ ID NO: 5) (D) for 3.5 hours and the relative fluorescence units (RFU) was measured every minute.
Proteasome Cleavage Reporter Assay: A549 cells, stimulated with TNFα and IFNγ for the indicated times, were collected and flash frozen. Frozen cells were re-suspended in lysis buffer (25 mM sucrose, 50 mM TRIS pH 7.4, 5 mM MgCl2, 0.5 mM EDTA, 2 mM ATP, 1 mM DTT). Lysates were passed 10 times through a 27 G needle, incubated on ice for 15 min and the centrifuged at 21130rcf for 10 min. Protein concentrations were measured using the Coomassie Plus (Bradford) Assay Kit (Pierce, ThermoFisher Scientific). […] of cellular lysate was incubated with 0.1 mM suc-LLVY-AMC (SEQ ID NO: 1), ac-PAL-AMC (SEQ ID NO: 2), Z-LLE-AMC (SEQ ID NO: 3) (Biotest), ac-NPND-AMC (SEQ ID NO: 4) and Z-LLE-βNA (SEQ ID NO: 5) (bachem) as per protocol and fluorescence levels were measured over time using a BioTek Synergy H1 plate reader (Ex: 360 nm, Em: 460 nm). The background protease activity was determined for each condition from an identically prepared sample with the addition of Mg132 proteasome inhibitor (0.04 mM; Calbiochem). […]

[1] = A549 extract, PA200 added at 4.7 nm (1:1) or 0.47 nm (1:10), FIG. 34A-D

Row | Compound | PSME4 expression (PSME4) | effect on the TNFα and IFNγ induced increase in proteasome cleavage (proteasome; A549 cells treated with TNFα and IFNγ plus recombinant PA200, LLVY-AMC or PAL-AMC, FIG. 33A-D) | chymotryptic cleavage (suc-LLVY-AMC) (proteasome; [1]) | constitutive proteasome caspase like activity (NPND-AMC + LLE-βNA) (proteasome; [1])
1 | NC(=O)c1ncn([C@@H]2O[C@H](CO)[C@@H](O)[C@H]2O)c1O [mizoribine] | decrease in PSME4 expression | – | – | –
2 | recombinant PSME4: recombinant Proteasome activator complex subunit 4 (PA200) added to A549 cell extract | – | partially reduced | reduction of activity | induces the activity
